Results from patent publication US20240228501A1, “IMIDAZOLE-CONTAINING CONDENSED RING DERIVATIVE, PREPARATION METHOD THEREFOR, AND APPLICATION THEREOF IN MEDICINE” (CHANGCHUN GENESCIENCE PHARMACEUTICAL CO., LTD., priority 2021, published 2024).
Read-outs that look alike come from different tables or passages of the source.

Assays:
[1] = tested on: MDR1; experiment: In vitro brain model test: MDR1-MDCKII bidirectional permeability; type: in vitro ADME; conditions: dog; for Papp A→B at 2.5 h, 2 μM / Papp B→A at 2.5 h, 2 μM: MDCK-MDR1, pH 7.4, 2 μM, pH7.4
Protocol: The test product was diluted from dimethyl sulfoxide stock solution to a concentration of 2 μM (dimethyl sulfoxide <1%) with a transfer buffer (HBSS containing 10 mM Hepes, pH7.4); and was applied to apical or basolateral cavities of the cell monolayer. Penetration of the test compound from the direction A to the direction B or from the direction B to the direction A was determined in duplicate. Digoxin was detected at 10 μM in the direction of A-B, or detected in the direction of B-A, while Nadolol and Metoprolol were detected at 2 μM in the direction of A-B in duplicate. The plate was cultivated in a CO2 incubator at 37±1° C. for 2.5 h with 5% CO2 at a saturated humidity without shaking. Further, the efflux rate of each compound was also determined. According to the peak area ratio of analyte/IS, the test product and the control product were quantitatively analyzed by LC-MS/MS.
After the transfer test, the monolayer integrity of cells was determined by a lucifer yellow exclusion assay. Buffer was removed from apical and basolateral cavities, and then 75 μL of 100 μM lucifer yellow and 250 μL of transfer buffer were added into the apical and basolateral cavities, respectively. The culture dish was cultivated at 37° C., 5% CO2, and saturated humidity for 30 min without shaking. After incubation for 30 min, 20 μL of lucifer yellow sample was extracted from the top, and then 60 μL of the transfer buffer was added. Then, 80 μL of lucifer yellow sample was extracted basolaterally. Relative Fluorescence Units (RFU) of lucifer yellow were measured at 425/528 nm (excitation/emission) with an Envision plate reader.

[2] = target: T1, human NK-3 receptor (Homo sapiens, UniProt P29371); experiment: Antagonistic activity on human NK-3 receptor in human NK-3R/HEK293 stably transfected cells (Fluo-4, FLIPR, Neurokinin B as agonist); type: cell-based; conditions: human NK-3R/HEK293 cells
T1 construct: expressed in transfected cells; host or cells: HEK293
T1 sequence (P29371 1-465): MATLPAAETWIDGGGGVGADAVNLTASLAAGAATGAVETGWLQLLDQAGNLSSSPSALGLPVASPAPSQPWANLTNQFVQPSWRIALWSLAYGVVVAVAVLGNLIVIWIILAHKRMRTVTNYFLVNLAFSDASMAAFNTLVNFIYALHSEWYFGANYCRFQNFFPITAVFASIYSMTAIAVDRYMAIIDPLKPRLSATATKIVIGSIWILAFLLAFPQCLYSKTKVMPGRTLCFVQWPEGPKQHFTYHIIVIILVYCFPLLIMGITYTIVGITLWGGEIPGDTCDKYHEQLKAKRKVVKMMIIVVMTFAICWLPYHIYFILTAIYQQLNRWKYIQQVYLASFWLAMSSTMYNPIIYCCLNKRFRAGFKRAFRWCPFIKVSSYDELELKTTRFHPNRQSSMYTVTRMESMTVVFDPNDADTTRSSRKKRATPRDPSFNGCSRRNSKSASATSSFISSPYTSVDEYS
In short: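 HEK293 cells stably expressing human NK-3R loaded with Component A dye 2 h at 37° C, then preincubated with serially 3-fold diluted compound 30 min at 25° C. Neurokinin B (2.5 nM, 6× stock) added on FLIPR Tetra to read calcium signal. IC50 from inhibition curves versus reference agonist.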

[3] = Pharmacokinetic test in rats (gavage 3 mg/kg, intravenous 1 mg/kg); type: in vivo; conditions: rat, plasma, SD rats; for Cmax: read-out: Blood concentration Cmax; for AUC: read-out: Curve area AUC; for half-life: read-out: Half life T1/2 (converted)
Protocol: Test Example 2: Pharmacokinetic Test of Compounds of the present invention in Rats
(§1) To study in vivo pharmacokinetic behaviors of the compounds of the present invention in rats, and evaluate pharmacokinetic characteristics thereof.
An appropriate amount of sample was weighed, and ultrasonically prepared into a 0.3 mg/mL suspension for the gavage administration group; and was prepared into a 0.2 mg/mL suspension for the intravenous administration group as per a formula of 5% DMSO+10% Solutol+85% (20% SBE-β-CD).
SD rats were fasted overnight, and then administered by gavage at a dosage of 3 mg/kg and by intravenous injection at a dosage of 1 mg/kg, respectively.
0.1 mL of blood was collected before administration and at 5 min, 15 min, 30 min, 1 h, 2 h, 4 h, 8 h, and 24 h after administration, transferred into heparinized tubes, and centrifuged at 3500 rpm for 10 min to separate the plasma, which was stored at −20° C. 4 h after administration, the animals were resumed for feeding/free access to water.
Contents of the test compounds in plasma of the rats after gavage administration were determined by LC/MS/MS.

[4] = Pharmacokinetic test in rats: plasma and brain concentration after gavage 3 mg/kg; type: in vivo; conditions: rat, oral, SD rats
Protocol: Test Example 4: Pharmacokinetic Test of Compounds of the Present Invention in Rats
as §1
An appropriate amount of sample was weighed, and ultrasonically prepared into a 0.3 mg/mL suspension for the gavage administration group as per a formula of 5% DMSO+10% Solutol+85% (20% SBE-β-CD).
SD rats were fasted overnight, and then administered by gavage at a dosage of 3 mg/kg respectively.
Blood and cerebrospinal fluid were collected at designed time points after administration, and then brain tissue was collected after cardiac perfusion with normal saline. Plasma was collected by centrifugation within 1 h, and then immediately transferred onto wet ice. Centrifugation conditions: 4-10° C., 8,000 rpm, 6 min. 4 h after administration, the animals were resumed for feeding/free access to water.
The concentrations of corresponding compounds in plasma and cerebrospinal fluid were detected by LC-MS/MS.

[5] = brain/plasma, read-out: B/P ratio

Papp A→B at 2.5 h, 2 μM [1] [×10⁻⁶ cm/s]	Papp B→A at 2.5 h, 2 μM [1] [×10⁻⁶ cm/s]	IC50 [2] [nM]	Cmax ([3]; po, gavage 3 mg/kg) [ng/mL]	AUC ([3]; po, gavage 3 mg/kg) [ng·h/mL]	half-life ([3]; po, gavage 3 mg/kg) [h]	AUC ([3]; intravenous injection 1 mg/kg) [ng·h/mL]	half-life ([3]; intravenous injection 1 mg/kg) [h]	concentration at 2 h ([4]; brain, read-out: Brain conc.) [ng/mL]	Kp at 2 h [4, 5]	concentration at 2 h ([4]; plasma, read-out: Plasma conc.) [ng/mL]	Compound	further results
26.2	28.4	734	2180	10100	3.22	2670	1.94	585 ± 117	0.46	1280 ± 110	Cc1nsc(-c2nnc3n2CCN(C(=O)c2ccc(F)cc2)[C@@H]3C)n1 [Fezolinetant, reference compound]	concentration at 1 h ([4]; brain, sampling time 1 h, read-out: Brain conc.): 512 ± 88.4 ng/mL; concentration at 4 h ([4]; brain, sampling time 4 h, read-out: Brain conc.): 419 ± 37.1 ng/mL; Kp at 1 h ([4]; brain/plasma, sampling time 1 h, read-out: B/P ratio): 0.38; Kp at 4 h ([4]; brain/plasma, sampling time 4 h, read-out: B/P ratio): 0.44; concentration at 1 h ([4]; plasma, sampling time 1 h, read-out: Plasma conc.): 1330 ± 177 ng/mL; concentration at 4 h ([4]; plasma, sampling time 4 h, read-out: Plasma conc.): 961 ± 21 ng/mL
18.3	14	14.5	494 ± 70.6	9860 ± 3550	11.7 ± 7.72	5170 ± 581	11.8 ± 3.54	1980 ± 232	3.66	547 ± 94.5	Cc1nsc(-c2nc(-c3cc(F)ncc3F)c3n2CCN(C(=O)c2ccc(F)cc2)[C@@H]3C)n1 [Compound 077, (R)-(1-(2,5-difluoropyridin-4-yl)-8-methyl-3-(3-methyl-1,2,4-thiadiazol-5-yl)-5,6-dihydroimidazo[1,5-a]pyrazin-7 (8H)-yl)(4-fluorophenyl)methanone]	efflux ratio at 2.5 h, 2 μM ([1]; MDCK-MDR1, pH 7.4, B to A / A to B, read-out: Efflux rate): 0.77; bioavailability ([3]; po, gavage 3 mg/kg vs intravenous 1 mg/kg, read-out: Oral bioavailability F (%)): 58.4%; concentration at 0.5 h ([4]; brain, sampling time 0.5 h, read-out: Brain conc.): 2570 ± 178 ng/mL; concentration at 8 h ([4]; brain, sampling time 8 h, read-out: Brain conc.): 2020 ± 406 ng/mL; Kp at 0.5 h ([4]; brain/plasma, sampling time 0.5 h, read-out: B/P ratio): 3.25; Kp at 8 h ([4]; brain/plasma, sampling time 8 h, read-out: B/P ratio): 3.36; concentration at 0.5 h ([4]; plasma, sampling time 0.5 h, read-out: Plasma conc.): 798 ± 79.8 ng/mL; concentration at 8 h ([4]; plasma, sampling time 8 h, read-out: Plasma conc.): 598 ± 74.9 ng/mL
